15 compounds from ChEMBL document CHEMBL5550134, “An insight into the pharmacology of cysteine/methionine containing peptide drugs” (Eur J Med Chem, 2024) can be followed below.

Numbered stars: 1 amine (or outer) side, 2 acyl side, 3 side chain; on linkers, the order of the positions; unused ones are H or OH. Bridge positions count the residues as written; N and C are the ends. Square brackets hold non-standard residues; d marks the D form. Peptide text beside a SMILES is read from it. * marks the point of attachment. 2Nal = N[C@@H](Cc1ccc2ccccc2c1)C(=O)O; Benzoyl(4-F) = O=C(c1ccc(F)cc1)*; Cit = NC(=O)NCCC[C@H](N)C(=O)O; X1 = O=C(CCC[*:2])[*:1]

The nature of data set [1]: Half life in human. The class given is ADME.
A short description of data set [2]: Plasma protein binding in human. The class given is ADME, cell-free. Particulars: read-out: PPB (converted).
Data set [3] in a line: Half life in human plasma. The class given is ADME, cell-free.
Data set [4] in a line: Half life in iv dosed human. Type of data set: ADME, organism-based. Particulars: in vivo.
Data set [5] can be described thus: Subcutaneous bioavailability in human. The settings on record: in vivo, sc.
A short description of data set [6]: Half life in human at 0.5 mg/kg, iv. The class given is ADME, organism-based. The settings on record: in vivo.
The nature of data set [7]: Terminal half life in human. The class given is ADME. The settings on record: read-out: beta t1/2 (converted).
Data set [8] in a line: Plasma protein binding in human at 0.2 ug/ml. The class given is ADME, cell-free. The settings on record: at 0.2 µg/mL, read-out: PPB.
A short description of data set [9]: Terminal elimination half life in human. Type of data set: ADME.
Data set [10] is described as follows: Half life in human at 0.3 mg/kg, iv. Type of data set: ADME, organism-based. The settings on record: in vivo.
Data set [11] can be described thus: Oral bioavailability in human. The class given is ADME, organism-based. Particulars: in vivo.

Turning to `CC[C@H](C)[C@H](NC(=O)[C@H](CO)NC(=O)[C@H](CC(N)=O)NC(=O)[C@H](CC(C)C)NC(=O)[C@H](Cc1ccc(O)cc1)NC(=O)[C@H](CCCCN)NC(=O)[C@H](CCCCN)NC(=O)[C@@H](NC(=O)[C@H](C)NC(=O)[C@H](CCSC)NC(=O)[C@H](CCC(N)=O)NC(=O)[C@H](CCCCN)NC(=O)[C@H](CCCN=C(N)N)NC(=O)[C@H](CC(C)C)NC(=O)[C@H](CCCN=C(N)N)NC(=O)[C@@H](NC(=O)[C@H](Cc1ccc(O)cc1)NC(=O)[C@H](CC(N)=O)NC(=O)[C@H](CC(=O)O)NC(=O)[C@@H](NC(=O)[C@H](Cc1ccccc1)NC(=O)[C@@H](NC(=O)[C@H](C)NC(=O)[C@H](CC(=O)O)NC(=O)[C@H](CO)NC(=O)[C@@H](N)Cc1c[nH]cn1)C(C)C)[C@@H](C)O)[C@@H](C)O)C(C)C)C(=O)N[C@@H](CC(C)C)C(=O)N[C@@H](CC(N)=O)C(N)=O`, the half-life in [1] was determined as 0.0167 h.

As to `N=C(N)NCCC[C@H](NC(=O)[C@@H]1CSSC[C@H](NC(=O)[C@H](Cc2ccc3ccccc3c2)NC(=O)[C@H](CCCNC(=N)N)NC(=O)[C@H](CCCNC(=N)N)NC(=O)c2ccc(F)cc2)C(=O)N[C@@H](Cc2ccc(O)cc2)C(=O)N[C@@H](CCCNC(N)=O)C(=O)N[C@@H](CCCCN)C(=O)N[C@@H](CCCCN)C(=O)N2CCC[C@H]2C(=O)N[C@@H](Cc2ccc(O)cc2)C(=O)N[C@@H](CCCNC(=N)N)C(=O)N[C@@H](CCCNC(N)=O)C(=O)N1)C(N)=O` ({Benzoyl(4-F)}-RR[2Nal]CY[Cit]KKPYR[Cit]CR-NH2; disulfide 4-13), the fraction unbound in data set [2] is below 0.01. For the same compound, the half-life in [1] was 2 h.

The compound `CC[C@H](C)[C@@H]1NC(=O)[C@H](Cc2ccc(OC)cc2)NC(=O)CCCSC[C@@H](C(=O)N2CCC[C@H]2C(=O)N[C@@H](CC(C)C)C(=O)NCC(N)=O)NC(=O)[C@H](CC(N)=O)NC(=O)[C@H](CCC(N)=O)NC1=O` [CARBETOCIN] (Y(Me)IQNCPLG-NH2; linker N-5 via X1) yielded a half-life in data set [3] of 0.667 h.

In turn, `CC(=O)N[C@H](CSSC[C@H](N)C(=O)O)C(=O)N[C@H](C)C(=O)N[C@H](CCCNC(=N)N)C(=O)N[C@H](CCCNC(=N)N)C(=O)N[C@H](CCCNC(=N)N)C(=O)N[C@H](C)C(=O)N[C@H](CCCNC(=N)N)C(N)=O` [ETELCALCETIDE] had a half-life in data set [4] of 72 h.

In [5], `NC(N)=NCCC[C@@H](N)C(=O)N[C@@H](CCCN=C(N)N)C(=O)N1CCC[C@H]1C(=O)N1C[C@H](O)C[C@H]1C(=O)NCC(=O)N[C@@H](Cc1cccs1)C(=O)N[C@@H](CO)C(=O)N1Cc2ccccc2C[C@@H]1C(=O)N1[C@H](C(=O)N[C@@H](CCCN=C(N)N)C(=O)O)C[C@@H]2CCCC[C@@H]21` [ICATIBANT] came in with a subcutaneous bioavailability of 97%. Further, the half-life in data set [1] was 1.4 h.

With `C/C=C1\NC(=O)[C@H]2CSSCC/C=C/[C@H](CC(=O)N[C@H](C(C)C)C(=O)N2)OC(=O)[C@H](C(C)C)NC1=O` [ROMIDEPSIN], the half-life in [6] is 3 h.

With `CC(=O)N[C@@H](CCCNC(=N)N)C(=O)N[C@H]1CSSC[C@@H](C(N)=O)NC(=O)[C@H](Cc2c[nH]c3ccccc23)NC(=O)[C@H](CCCNC(=N)N)NC(=O)[C@@H](Cc2ccccc2)NC(=O)[C@H](Cc2c[nH]cn2)NC(=O)[C@@H](C)NC1=O` [SETMELANOTIDE], the fraction unbound in data set [2] was 0.209. Also, in data set [1], the half-life is 11 h.

In the case of `CC[C@H](C)[C@H](NC(=O)[C@H](Cc1ccccc1)NC(=O)[C@H](CC(=O)O)NC(=O)[C@H](CCCNC(=N)N)NC(=O)[C@H](C)NC(=O)[C@H](C)NC(=O)[C@H](CC(C)C)NC(=O)[C@H](CC(N)=O)NC(=O)[C@H](CC(=O)O)NC(=O)[C@H](CC(C)C)NC(=O)[C@@H](NC(=O)[C@@H](NC(=O)[C@H](CC(N)=O)NC(=O)[C@H](CCSC)NC(=O)[C@H](CCC(=O)O)NC(=O)[C@H](CC(=O)O)NC(=O)[C@H](CO)NC(=O)[C@H](Cc1ccccc1)NC(=O)[C@H](CO)NC(=O)CNC(=O)[C@H](CC(=O)O)NC(=O)CNC(=O)[C@@H](N)Cc1c[nH]cn1)[C@@H](C)O)[C@@H](C)CC)C(=O)N[C@@H](CC(N)=O)C(=O)N[C@@H](Cc1c[nH]c2ccccc12)C(=O)N[C@@H](CC(C)C)C(=O)N[C@H](C(=O)N[C@@H](CCC(N)=O)C(=O)N[C@H](C(=O)N[C@@H](CCCCN)C(=O)N[C@H](C(=O)N[C@H](C(=O)N[C@@H](CC(=O)O)C(=O)O)[C@@H](C)O)[C@@H](C)CC)[C@@H](C)O)[C@@H](C)CC` [TEDUGLUTIDE], the subcutaneous bioavailability in [5] worked out at 88%. Also, in data set [7], the half-life was 1.3 h.

With `CC[C@H](C)[C@H](NC(=O)[C@H](CCC(=O)O)NC(=O)[C@H](CO)NC(=O)[C@@H](NC(=O)[C@@H](N)CO)C(C)C)C(=O)N[C@@H](CCC(N)=O)C(=O)N[C@@H](CC(C)C)C(=O)N[C@@H](CCSC)C(=O)N[C@@H](Cc1cnc[nH]1)C(=O)N[C@@H](CC(N)=O)C(=O)N[C@@H](CC(C)C)C(=O)NCC(=O)N[C@@H](CCCCN)C(=O)N[C@@H](Cc1cnc[nH]1)C(=O)N[C@@H](CC(C)C)C(=O)N[C@@H](CC(N)=O)C(=O)N[C@@H](CO)C(=O)N[C@@H](CCSC)C(=O)N[C@@H](CCC(=O)O)C(=O)N[C@@H](CCCN=C(N)N)C(=O)N[C@H](C(=O)N[C@@H](CCC(=O)O)C(=O)N[C@@H](Cc1c[nH]c2ccccc12)C(=O)N[C@@H](CC(C)C)C(=O)N[C@@H](CCCN=C(N)N)C(=O)N[C@@H](CCCCN)C(=O)N[C@@H](CCCCN)C(=O)N[C@@H](CC(C)C)C(=O)N[C@@H](CCC(N)=O)C(=O)N[C@@H](CC(=O)O)C(=O)N[C@H](C(=O)N[C@@H](Cc1cnc[nH]1)C(=O)N[C@@H](CC(N)=O)C(=O)N[C@@H](Cc1ccccc1)C(=O)O)C(C)C)C(C)C` [TERIPARATIDE], in data set [5], the subcutaneous bioavailability is 95%. In data set [1], this compound had a half-life of 1 h.

As for `NCCCC[C@H](NC(=O)[C@@H]1CCCN1C(=O)[C@@H]1CSSC[C@H](NC(=O)CNC(=O)CNC(=O)CN)C(=O)N[C@@H](Cc2ccc(O)cc2)C(=O)N[C@@H](Cc2ccccc2)C(=O)N[C@@H](CCC(N)=O)C(=O)N[C@@H](CC(N)=O)C(=O)N1)C(=O)NCC(N)=O` [TERLIPRESSIN], the half-life in data set [7] is 0.9 h.

In the case of `CSCC[C@@H]1NC(=O)[C@H](CC(C)C)NC(=O)[C@H](CCCNC(=N)N)NC(=O)[C@H](CO)NC(=O)[C@@H]2CSSC[C@@H]3NC(=O)[C@H](CO)NC(=O)CNC(=O)[C@H]([C@@H](C)O)NC(=O)[C@H](CSSC[C@H](N)C(=O)N[C@@H](CCCCN)C(=O)NCC(=O)N[C@@H](CCCCN)C(=O)NCC(=O)N[C@@H](C)C(=O)N[C@@H](CCCCN)C(=O)N2)NC(=O)[C@H](CSSC[C@@H](C(N)=O)NC(=O)[C@H](CCCCN)NC(=O)CNC(=O)[C@H](CO)NC(=O)[C@H](CCCNC(=N)N)NC3=O)NC(=O)[C@H](CC(=O)O)NC(=O)[C@H](Cc2ccc(O)cc2)NC1=O` [ZICONOTIDE], the fraction unbound at 0.2 ug/ml in [8] was determined as 0.5.

As for LIXISENATIDE, the “beta t1/2” value in data set [9] turned out to be 3 h.

As to NESIRITIDE, in data set [10], the t1/2 is 0.3 h.

In data set [11], TESAMORELIN displayed an F below 4%. In [1], this compound gave a t1/2 of 0.433 h.

In the case of VOSORITIDE, in [1], the t1/2 stood at 0.35 h.
